Laboratory results: article PMC3672848 (Journal of immunology (Baltimore, Md. : 1950), 2013)
Values belong to the molecule of their own block, whether it stands above or below them.

How the values were obtained:
Type in all cases: cell-based
P2X7R [1] = target: T1, P2X7R (Homo sapiens, UniProt Q99572); test: whole-cell patch clamp, concentration-dependent inward currents
T1 sequence (Q99572 1-595): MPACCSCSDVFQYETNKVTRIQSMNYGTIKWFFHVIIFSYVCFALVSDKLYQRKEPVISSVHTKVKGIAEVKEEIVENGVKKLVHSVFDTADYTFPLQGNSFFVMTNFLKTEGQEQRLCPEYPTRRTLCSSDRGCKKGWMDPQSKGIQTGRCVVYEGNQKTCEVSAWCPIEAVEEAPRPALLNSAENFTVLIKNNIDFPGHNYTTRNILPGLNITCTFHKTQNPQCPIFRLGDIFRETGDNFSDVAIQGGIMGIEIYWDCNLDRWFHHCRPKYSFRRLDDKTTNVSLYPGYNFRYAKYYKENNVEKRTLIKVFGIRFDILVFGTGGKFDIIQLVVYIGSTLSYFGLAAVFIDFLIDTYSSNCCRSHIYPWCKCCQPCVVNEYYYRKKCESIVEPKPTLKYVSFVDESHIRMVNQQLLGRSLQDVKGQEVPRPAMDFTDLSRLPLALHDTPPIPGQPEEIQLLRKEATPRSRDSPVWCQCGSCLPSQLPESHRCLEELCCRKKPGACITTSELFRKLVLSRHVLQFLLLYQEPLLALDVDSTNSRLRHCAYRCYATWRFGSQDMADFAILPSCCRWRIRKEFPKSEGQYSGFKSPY

P2X7R [2] = target: T1, P2X7R; test: inhibition of ATP-induced
P2X7R [3] = target: T1, P2X7R; test: whole-cell patch clamp:[…] blocks […] ATP-evoked current

EC50 (P2X7R [1]): 877 µM
Compound: Nc1ncnc2c1ncn2[C@@H]1O[C@H](COP(=O)(O)OP(=O)(O)OP(=O)(O)O)[C@@H](O)[C@H]1O [ATP]

IC50 (P2X7R [2]): 1.35 µM
Compound: O=C1CSC(=O)N1C(CCc1ccncc1)COc1ccc(-c2cccc([N+](=O)[O-])c2)cc1 (stereo not drawn) [AZ11645373]

IC50 (P2X7R [3]): 2.25 µM
Compound: Clc1cccc(-c2nnnn2Cc2cccnc2)c1Cl [A438079]
